ChEMBL document CHEMBL4219171, “Synthesis and investigations into the anticancer and antibacterial activity studies of β-carboline chalcones and their bromide salts” (Bioorg Med Chem Lett, 2018)
≈ marks a conversion by molar mass, not a printed value.

How the values were obtained:
[1] = tested on: BXPC-3; test: Cytotoxicity against human BxPC3 cells after 48 hrs by MTT assay; format: functional, cell-based; conditions: BXPC-3, 48 h
[2] = tested on: HeLa; test: Cytotoxicity against human HeLa cells after 48 hrs by MTT assay; format: functional, cell-based
[3] = tested on: LNCaP C4-2; test: Cytotoxicity against human C4-2 cells after 48 hrs by MTT assay; format: functional, cell-based; conditions: LNCaP C4-2, 48 h
[4] = tested on: PC-3; test: Cytotoxicity against human PC3 cells after 48 hrs by MTT assay; format: functional, cell-based; conditions: PC-3, 48 h
[5] = tested on: HEK-293T; test: Cytotoxicity against human HEK293T cells after 48 hrs by MTT assay; format: cell-based
[6] = tested on: MDA-MB-231; test: Cytotoxicity against human MDA-MB-231 cells after 48 hrs by MTT assay; format: functional, cell-based; conditions: MDA-MB-231, 48 h
[7] = tested on: NIH3T3; test: Cytotoxicity against mouse NIH/3T3 cells after 48 hrs by MTT assay; format: cell-based; conditions: NIH3T3, 48 h
[8] = tested on: Bacillus subtilis; test: Antibacterial activity against Bacillus subtilis MTCC 121 assessed as zone of inhibition measured after 18 hrs by disc diffusion method; format: functional
[9] = tested on: Bacillus subtilis; test: Antibacterial activity against Bacillus subtilis MTCC 121 after 24 hrs by broth microdilution assay; format: functional; conditions: MTCC 121, 24 h
[10] = tested on: Staphylococcus aureus; test: Antibacterial activity against Staphylococcus aureus MTCC 96 assessed as zone of inhibition measured after 18 hrs by disc diffusion method; format: functional
[11] = tested on: Staphylococcus aureus; test: Antibacterial activity against Staphylococcus aureus MTCC 96 after 24 hrs by broth microdilution assay; format: functional; conditions: MTCC 96, 24 h
[12] = tested on: Enterobacter cloacae; test: Antibacterial activity against Enterobacter cloacae NAIMCC-B-02025 assessed as zone of inhibition measured after 18 hrs by disc diffusion method; format: functional
[13] = tested on: Enterobacter cloacae; test: Antibacterial activity against Enterobacter cloacae NAIMCC-B-02025 after 24 hrs by broth microdilution assay; format: functional; conditions: NAIMCC-B-02025, 24 h
[14] = tested on: Pseudomonas aeruginosa; test: Antibacterial activity against Pseudomonas aeruginosa MTCC 424 assessed as zone of inhibition measured after 18 hrs by disc diffusion method; format: functional
[15] = tested on: Escherichia coli; test: Antibacterial activity against Escherichia coli MTCC 1652 assessed as zone of inhibition measured after 18 hrs by disc diffusion method; format: functional

## COc1ccc(/C=C/C(=O)c2nccc3c2[nH]c2ccccc23)cc1
[1]
  IC50: > 100 µM
[2]
  IC50: > 100 µM
[3]
  IC50: > 100 µM
[4]
  IC50: > 100 µM
[5]
  IC50: > 100 µM
[6]
  IC50: > 100 µM
[7]
  IC50: > 100 µM
[8]
  inhibition zone (IZ): 8 mm
[9]
  MIC: 885 µM (≈ 291 µg/mL)
[10]
  inhibition zone (IZ): 12 mm
[11]
  MIC: 733 µM (≈ 241 µg/mL)
[12]
  inhibition zone (IZ): 9 mm
[13]
  MIC: 846 µM (≈ 278 µg/mL)
[14]
  inhibition zone (IZ): 8 mm

## COc1ccc(/C=C/C(=O)c2c3[nH]c4ccccc4c3cc[n+]2Cc2ccccc2)cc1.[Br-]
[1]
  IC50: 50.2 µM
[2]
  IC50: 60.1 µM
[3]
  IC50: 65.5 µM
[4]
  IC50: 88.3 µM
[5]
  IC50: 41.4 µM
[6]
  IC50: 52.2 µM
[7]
  IC50: 85.3 µM
[8]
  inhibition zone (IZ): 8 mm
[9]
  MIC: 875 µM
[10]
  inhibition zone (IZ): 15 mm
[11]
  MIC: 440 µM
[12]
  inhibition zone (IZ): 8 mm
[13]
  MIC: 874 µM
[15]
  inhibition zone (IZ): 8 mm

## CCCC[n+]1ccc2c([nH]c3ccccc32)c1C(=O)/C=C/c1cc(OC)c(OC)c(OC)c1.[Br-]
[1]
  IC50: 25.1 µM
[2]
  IC50: 35.6 µM
[3]
  IC50: 39.6 µM
[4]
  IC50: 40.1 µM
[5]
  IC50: 34.4 µM
[6]
  IC50: 32 µM
[7]
  IC50: 68.6 µM
[10]
  inhibition zone (IZ): 10 mm
[11]
  MIC: 812 µM
[12]
  inhibition zone (IZ): 10 mm
[13]
  MIC: 806 µM
[15]
  inhibition zone (IZ): 8 mm
[14]
  inhibition zone (IZ): 12 mm

## O=C(/C=C/c1ccccc1)c1nccc2c1[nH]c1ccccc12
[1]
  IC50: 72 µM
[2]
  IC50: 82.4 µM
[3]
  IC50: 80.2 µM
[4]
  IC50: 93 µM
[5]
  IC50: 65.6 µM
[6]
  IC50: 71.1 µM
[7]
  IC50: > 100 µM
[8]
  inhibition zone (IZ): 9 mm
[9]
  MIC: 838 µM (≈ 250 µg/mL)

## O=C(/C=C/c1ccc(C(F)(F)F)cc1)c1nccc2c1[nH]c1ccccc12
[10]
  inhibition zone (IZ): 11 mm
[11]
  MIC: 710 µM (≈ 260 µg/mL)
[12]
  inhibition zone (IZ): 11 mm
[13]
  MIC: 726 µM (≈ 266 µg/mL)
[15]
  inhibition zone (IZ): 10 mm

## CCCC[n+]1ccc2c([nH]c3ccccc32)c1C(=O)/C=C/c1ccc(OC)cc1.[Br-]
[1]
  IC50: 50.8 µM
[2]
  IC50: 45 µM
[3]
  IC50: 38.8 µM
[4]
  IC50: 65 µM
[5]
  IC50: 35.2 µM
[6]
  IC50: 40.9 µM
[7]
  IC50: 74.6 µM
[10]
  inhibition zone (IZ): 9 mm

## O=C(N[C@H](CO)[C@H](O)c1ccc([N+](=O)[O-])cc1)C(Cl)Cl [CHLORAMPHENICOL]
[8]
  inhibition zone (IZ): 22 mm
[9]
  MIC: 32 µM (≈ 10.3 µg/mL)
[10]
  inhibition zone (IZ): 22 mm
[11]
  MIC: 17 µM (≈ 5.49 µg/mL)
[12]
  inhibition zone (IZ): 20 mm
[13]
  MIC: 24 µM (≈ 7.76 µg/mL)
[15]
  inhibition zone (IZ): 22 mm
[14]
  inhibition zone (IZ): 21 mm

## O=C(/C=C/c1ccc2c(c1)OCO2)c1nccc2c1[nH]c1ccccc12
[1]
  IC50: > 100 µM
[2]
  IC50: > 100 µM
[3]
  IC50: > 100 µM
[4]
  IC50: > 100 µM
[5]
  IC50: > 100 µM
[6]
  IC50: > 100 µM
[7]
  IC50: > 100 µM

## COc1cc(/C=C/C(=O)c2nccc3c2[nH]c2ccccc23)cc(OC)c1OC
[1]
  IC50: 70.8 µM
[2]
  IC50: 75.2 µM
[3]
  IC50: 71.6 µM
[4]
  IC50: > 100 µM
[5]
  IC50: 82.1 µM
[6]
  IC50: 71.5 µM
[7]
  IC50: > 100 µM
[10]
  inhibition zone (IZ): 7 mm
[11]
  MIC: > 900 µM
[12]
  inhibition zone (IZ): 10 mm
[13]
  MIC: 834 µM (≈ 324 µg/mL)
